Data taken from patent US6096930A, “Herbicidal cyclohexane-1,3-dione derivatives and their preparation process” (Korea Research Institute of Chemical Technology, priority 1994, dated 2000).
Like-named read-outs stand apart in the source and are kept apart here.

Legend:
Experiment in all cases: Herbicidal activity for paddy test
Assay type in all cases: in vivo
ORYSA = conditions: for plant injury at 2 g/ha: 0.002 kg/ha; for plant injury at 8 g/ha: 0.008 kg/ha; for plant injury at 31 g/ha: 0.031 kg/ha; for plant injury at 125 g/ha: 0.125 kg/ha; for plant injury at 500 g/ha: 0.500 kg/ha
Text: (§1) The sterilized sandy loam soil is filled in test pot having a surface area of 348 cm^2 for upland test conditions or 115 cm^2 for paddy test species were planted in furrows.
(§2) The herbicidal activity data were taken visually by percent control, wherein 0 signifies no herbicidal effect and 100 signifies complete kill.

SCPJU = conditions: for pest or weed control at 2 g/ha: 0.002 kg/ha; for pest or weed control at 8 g/ha: 0.008 kg/ha; for pest or weed control at 31 g/ha: 0.031 kg/ha; for pest or weed control at 125 g/ha: 0.125 kg/ha; for pest or weed control at 500 g/ha: 0.500 kg/ha
Text: as §1, §2

MOOVA = conditions: for pest or weed control at 2 g/ha: 0.002 kg/ha; for pest or weed control at 8 g/ha: 0.008 kg/ha; for pest or weed control at 31 g/ha: 0.031 kg/ha; for pest or weed control at 125 g/ha: 0.125 kg/ha; for pest or weed control at 500 g/ha: 0.500 kg/ha
Text: as §1, §2

SAGPY = conditions: for pest or weed control at 2 g/ha: 0.002 kg/ha; for pest or weed control at 8 g/ha: 0.008 kg/ha; for pest or weed control at 31 g/ha: 0.031 kg/ha; for pest or weed control at 125 g/ha: 0.125 kg/ha; for pest or weed control at 500 g/ha: 0.500 kg/ha
Text: as §1, §2

ECHOR = conditions: for pest or weed control at 2 g/ha: 0.002 kg/ha; for pest or weed control at 8 g/ha: 0.008 kg/ha; for pest or weed control at 31 g/ha: 0.031 kg/ha; for pest or weed control at 125 g/ha: 0.125 kg/ha; for pest or weed control at 500 g/ha: 0.500 kg/ha
Text: as §1, §2

[1] = 3 Leaf, read-out: Herbicidal activity, ORYSA (3 Leaf)
[2] = seed, read-out: Herbicidal activity, ORYSA (seed)

SMILES | plant injury at 2 g/ha (ORYSA; [1]) [%] | plant injury at 8 g/ha (ORYSA; [1]) [%] | plant injury at 31 g/ha (ORYSA; [1]) [%] | plant injury at 125 g/ha (ORYSA; [1]) [%] | plant injury at 500 g/ha (ORYSA; [1]) [%] | plant injury at 2 g/ha (ORYSA; [2]) [%] | plant injury at 8 g/ha (ORYSA; [2]) [%] | plant injury at 31 g/ha (ORYSA; [2]) [%] | plant injury at 125 g/ha (ORYSA; [2]) [%] | plant injury at 500 g/ha (ORYSA; [2]) [%] | pest or weed control at 2 g/ha (SCPJU) [%] | pest or weed control at 8 g/ha (SCPJU) [%] | pest or weed control at 31 g/ha (SCPJU) [%] | pest or weed control at 125 g/ha (SCPJU) [%] | pest or weed control at 500 g/ha (SCPJU) [%] | pest or weed control at 2 g/ha (MOOVA) [%] | pest or weed control at 8 g/ha (MOOVA) [%] | pest or weed control at 31 g/ha (MOOVA) [%] | pest or weed control at 125 g/ha (MOOVA) [%] | pest or weed control at 500 g/ha (MOOVA) [%] | other results
CCON=C(CC)C1=C(O)CC(c2c(C)c(C)c3c(c2C)CC(C)(CC)C3)CC1=O (stereo not drawn) [Compound 12] | 0 | 0 | 0 | 0 | 40 | 0 | 0 | 30 | 100 | 100 | 0 | 0 | 0 | 0 | 60 | 0 | 0 | 0 | 0 | 50 | pest or weed control at 2 g/ha (SAGPY): 0%; pest or weed control at 8 g/ha (SAGPY): 0%; pest or weed control at 31 g/ha (SAGPY): 0%; pest or weed control at 125 g/ha (SAGPY): 0%; pest or weed control at 500 g/ha (SAGPY): 30%; pest or weed control at 2 g/ha (ECHOR): 30%; pest or weed control at 8 g/ha (ECHOR): 70%; pest or weed control at 31 g/ha (ECHOR): 100%; pest or weed control at 125 g/ha (ECHOR): 100%; pest or weed control at 500 g/ha (ECHOR): 100%
C=CCON=C(CC)C1=C(O)CC(c2c(C)c(C)c3c(c2C)CC(C)(CC)C3)CC1=O (stereo not drawn) [Compound 13, 5-(2-Ethyl-2,4,5,7-tetramethylindan-6-yl)-2-[1-(allyloxyimino)propyl]-3-hydroxycyclohex-2-en-1-one] | 0 | 0 | 0 | 0 | 30 | 0 | 30 | 50 | 100 | 100 | 0 | 0 | 0 | 0 | 0 | 0 | 0 | 0 | 0 | 30 | pest or weed control at 2 g/ha (SAGPY): 0%; pest or weed control at 8 g/ha (SAGPY): 0%; pest or weed control at 31 g/ha (SAGPY): 0%; pest or weed control at 125 g/ha (SAGPY): 30%; pest or weed control at 500 g/ha (SAGPY): 30%; pest or weed control at 2 g/ha (ECHOR): 30%; pest or weed control at 8 g/ha (ECHOR): 50%; pest or weed control at 31 g/ha (ECHOR): 100%; pest or weed control at 125 g/ha (ECHOR): 100%; pest or weed control at 500 g/ha (ECHOR): 100%
CCC(=NOCC=CCl)C1=C(O)CC(c2c(C)c(C)c3c(c2C)CC(C)(CC)C3)CC1=O (stereo not drawn) [Compound 14] | 0 | 0 | 0 | 0 | 40 | 0 | 0 | 0 | 40 | 100 | 0 | 0 | 0 | 30 | 90 | 0 | 0 | 0 | 30 | 100 | pest or weed control at 2 g/ha (SAGPY): 0%; pest or weed control at 8 g/ha (SAGPY): 0%; pest or weed control at 31 g/ha (SAGPY): 0%; pest or weed control at 125 g/ha (SAGPY): 0%; pest or weed control at 500 g/ha (SAGPY): 30%; pest or weed control at 2 g/ha (ECHOR): 30%; pest or weed control at 8 g/ha (ECHOR): 70%; pest or weed control at 31 g/ha (ECHOR): 100%; pest or weed control at 125 g/ha (ECHOR): 100%; pest or weed control at 500 g/ha (ECHOR): 100%
C=C(Cl)CON=C(CC)C1=C(O)CC(c2c(C)c(C)c3c(c2C)CC(C)(CC)C3)CC1=O (stereo not drawn) [Compound 15] | 0 | 0 | 0 | 0 | 30 | 0 | 0 | 0 | 40 | 100 | 0 | 0 | 0 | 0 | 0 | 0 | 0 | 0 | 0 | 30 | pest or weed control at 2 g/ha (SAGPY): 0%; pest or weed control at 8 g/ha (SAGPY): 0%; pest or weed control at 31 g/ha (SAGPY): 0%; pest or weed control at 125 g/ha (SAGPY): 0%; pest or weed control at 500 g/ha (SAGPY): 0%; pest or weed control at 2 g/ha (ECHOR): 0%; pest or weed control at 8 g/ha (ECHOR): 30%; pest or weed control at 31 g/ha (ECHOR): 30%; pest or weed control at 125 g/ha (ECHOR): 100%; pest or weed control at 500 g/ha (ECHOR): 100%
CCCC(=NOC)C1=C(O)CC(c2c(C)c(C)c3c(c2C)CC(C)(CC)C3)CC1=O (stereo not drawn) [Compound 16] | 0 | 0 | 0 | 0 | 30 | 0 | 0 | 30 | 100 | 100 | 0 | 0 | 0 | 0 | 0 | 0 | 0 | 30 | 50 | 50 | pest or weed control at 2 g/ha (SAGPY): 0%; pest or weed control at 8 g/ha (SAGPY): 0%; pest or weed control at 31 g/ha (SAGPY): 0%; pest or weed control at 125 g/ha (SAGPY): 0%; pest or weed control at 500 g/ha (SAGPY): 30%; pest or weed control at 2 g/ha (ECHOR): 0%; pest or weed control at 8 g/ha (ECHOR): 30%; pest or weed control at 31 g/ha (ECHOR): 70%; pest or weed control at 125 g/ha (ECHOR): 100%; pest or weed control at 500 g/ha (ECHOR): 100%
C=CCON=C(CCC)C1=C(O)CC(c2c(C)c(C)c3c(c2C)CC(C)(CC)C3)CC1=O (stereo not drawn) [Compound 18] | 0 | 0 | 0 | 0 | 0 | 0 | 0 | 0 | 30 | 100 | 0 | 0 | 0 | 0 | 0 | 0 | 0 | 0 | 0 | 0 | pest or weed control at 2 g/ha (SAGPY): 0%; pest or weed control at 8 g/ha (SAGPY): 0%; pest or weed control at 31 g/ha (SAGPY): 0%; pest or weed control at 125 g/ha (SAGPY): 0%; pest or weed control at 500 g/ha (SAGPY): 0%; pest or weed control at 2 g/ha (ECHOR): 0%; pest or weed control at 8 g/ha (ECHOR): 30%; pest or weed control at 31 g/ha (ECHOR): 70%; pest or weed control at 125 g/ha (ECHOR): 100%; pest or weed control at 500 g/ha (ECHOR): 100%
CCCC(=NOCC=CCl)C1=C(O)CC(c2c(C)c(C)c3c(c2C)CC(C)(CC)C3)CC1=O (stereo not drawn) [Compound 19] | 0 | 0 | 0 | 0 | 0 | 0 | 0 | 0 | 0 | 30 | 0 | 0 | 0 | 0 | 0 | 0 | 0 | 0 | 0 | 0 | pest or weed control at 2 g/ha (SAGPY): 0%; pest or weed control at 8 g/ha (SAGPY): 0%; pest or weed control at 31 g/ha (SAGPY): 0%; pest or weed control at 125 g/ha (SAGPY): 0%; pest or weed control at 500 g/ha (SAGPY): 0%; pest or weed control at 2 g/ha (ECHOR): 0%; pest or weed control at 8 g/ha (ECHOR): 50%; pest or weed control at 31 g/ha (ECHOR): 80%; pest or weed control at 125 g/ha (ECHOR): 100%; pest or weed control at 500 g/ha (ECHOR): 100%
